Consider eight compounds from patent publication US20110124634A1, “BIOACTIVE COMPOUNDS FOR TREATMENT OF CANCER AND NEURODEGENERATIVE DISEASES” (PONIARD PHARMACEUTICALS, INC., priority 2008, published 2011).

The subject of test [1] is HSP90 client protein Her2 in SKBR-3 cells. As to the kind of experiment: Her-2 degradation assay (Her-2 ELISA) in SKBr-3 cells. In kind it is cell-based. Particulars: Homo sapiens, means of three independent experiments. In a few lines: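 SKBr-3 cells in McCoy's 5a/10% FBS treated with increasing inhibitor concentrations for 18 h; lysates (2 ug protein, BCA-normalised) assayed by Her-2 ELISA at 450 nm with no-lysate background subtracted. IC50 from nonlinear fit of A450 versus log inhibitor concentration.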

In a further test the test system is BT474. As to the kind of experiment: MTS assay (cytotoxicity), growth inhibition of BT474. It counts as cell-based. The following applies: Homo sapiens, BT-474, 120 h, Table 4, 5 days, means of three independent experiments, read-out: BT474 IC50 (growth inhibition). In short, it runs like this: (§1)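 Cells seeded at 2000/well for 24 h, then exposed to increasing inhibitor concentrations for 5 days. Viable cells measured by MTS, absorbance 490 nm after 2-4 h, cell-free background subtracted. IC50 from nonlinear least-squares fit of absorbance vs log concentration.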

In a further test the test system is SKBR-3. Briefly: MTS assay (cytotoxicity), growth inhibition of SKBR-3. The following applies: Homo sapiens, SK-BR-3, 120 h, Table 4, 5 days, means of three independent experiments, read-out: SKBR-3 IC50 (growth inhibition). It counts as cell-based. In short, it runs like this:
as §1

Another test deals with HT29. As to the kind of experiment: MTS assay (cytotoxicity), growth inhibition of HT29. In kind it is cell-based. The following applies: Homo sapiens, HT-29, 120 h, Table 4, 5 days, means of three independent experiments, read-out: HT29 IC50 (growth inhibition). Here is the method: (§2) Cells were seeded in 96-well plates at 2000 cells/well in a final culture volume of 100 ul for 24 hours before the addition of 25 ul of increasing concentrations of inhibitors that was incubated for 5 days. Viable cell number was determined using the CellTiter 96 AQueous One Solution Cell Proliferation Assay (Promega). Plates were read at 490 nm absorbance 2-4 hours after addition of the MTS reagent using a multiwell plate spectrophotometer. Background was determined by measuring the Abs 490 nm of cell culture medium and MTS in the absence of cells. The background value was subtracted from all values. Absorbance 490 nm values for each inhibitor were plotted against the log 10 inhibitor concentration, and IC50 values were calculated using a nonlinear least-square curve fitting program in Prism 5.

The next test deals with MCF-7. As to the kind of experiment: MTS assay (cytotoxicity), growth inhibition of MCF-7. It counts as cell-based. Particulars: Homo sapiens, MCF7, 120 h, Table 4, 5 days, means of three independent experiments, read-out: MCF-7 IC50 (growth inhibition). In short, it runs like this: as §1
The next test relates to HSP90. As to the kind of experiment: Fluorescence polarization (FP) assay for affinity to HSP90. In kind it is binding. The following applies: means of three independent experiments. Here is the method:
Most of the compounds synthesized were evaluated for their ability to induce degradation of the HSP90 client protein Her2 in SKBR-3 cells. Selected compounds were evaluated in a fluorescence polarization (FP) assay for their affinity to HSP90.

The subject of another test is hMEpiC. As to the kind of experiment: MTS assay (cytotoxicity), growth inhibition of human mammary epithelial cell. It counts as cell-based. Particulars: Table 4, means of three independent experiments. Here is the method: as §2
[2] abbreviates: SK-BR-3, Table 1, series I, 18 hours.

SMILES strings stand for the structures.

`COc1c(C)cnc(CN2CC(=O)Nc3c(Cl)nc(N)nc32)c1C` [Example I-2]: the IC50 amounted to 570 nM in test [1] (setting [2]); 650 nM in the test with BT474; 390 nM in the test on SKBR-3; 1180 nM with HT29; 1490 nM in the test with MCF-7; 880 nM with HSP90 (Table 1, series I).
`COc1c(C)cnc(CN2CC(=O)N(CCCC(C)C)c3c(Cl)nc(N)nc32)c1C` [Example I-3]: the IC50 in test [1] (setting [2]) was 1910 nM; in the test on BT474 it was 1650 nM; in the test on SKBR-3, 970 nM; with HT29 it was 2260 nM; in the test on MCF-7, 3110 nM; in the test on HSP90 (Table 1, series I), 900 nM.
Regarding `COc1c(C)cnc(CN2CC(=O)N(C(C)C)c3c(Cl)nc(N)nc32)c1C` [Example I-4], the IC50 in test [1] (setting [2]) was 50 nM; with BT474, 30 nM; in the test with hMEpiC, 320 nM; in the test on SKBR-3 it was 20 nM; with HT29 it was 60 nM; with MCF-7, 50 nM. In addition, it took 70 nM to reach half-maximal inhibition with HSP90 (Table 1, series I) (IC50).
Consider `COc1c(C)cnc(CN2CC(=O)N(C)c3c(Cl)nc(N)nc32)c1C` [Example I-5], for which the IC50 in test [1] (setting [2]) was 930 nM; in the test on BT474 it was 950 nM; in the test on SKBR-3 it was 460 nM; in the test with HT29, 1470 nM; in the test with MCF-7, 2190 nM; in the test with HSP90 (Table 1, series I), 960 nM.
For `COc1c(C)cnc(CN2CC(=O)N(CC(C)C)c3c(Cl)nc(N)nc32)c1C` [Example I-6], the IC50 in test [1] (setting [2]) came out at 40 nM; with BT474, 20 nM; with hMEpiC, 130 nM; in the test on SKBR-3, 10 nM; in the test with HT29 it was 40 nM; with MCF-7, 70 nM. Besides, the IC50 was found to be 50 nM with HSP90 (Table 1, series I) and 50 nM in the test on HSP90 (Table 2).
For the compound `COc1c(C)cnc(CN2c3nc(N)nc(Cl)c3NC(=O)[C@H]2C)c1C` [Example I-26], the IC50 in test [1] (SK-BR-3, Table 2, 18 hours) came to 350 nM; in the test on BT474, 410 nM; in the test on SKBR-3 it was 220 nM; with HT29, 470 nM; in the test on MCF-7, 790 nM; in the test with HSP90 (Table 2), 400 nM.
Turning to `COc1c(C)cnc(CN2c3nc(N)nc(Cl)c3NC(=O)[C@@H]2C(C)C)c1C` [Example I-28], the IC50 worked out at 650 nM in test [1] (SK-BR-3, Table 2, 18 hours); 760 nM with BT474; 430 nM in the test on SKBR-3; 1060 nM in the test with HT29; 1600 nM with MCF-7; 2140 nM in the test with HSP90 (Table 2).
Turning to `Cc1cnc(CN2CC(=O)N(CC(C)C)c3c(Cl)nc(N)nc32)c(C)c1Br` [Example I-34], the IC50 in test [1] (SK-BR-3, Table 3, 18 hours) was 100 nM; with BT474, 130 nM; in the test with hMEpiC it was 180 nM; with SKBR-3, 60 nM; in the test with HT29, 140 nM; in the test with MCF-7, 280 nM. The compound further gave an IC50 in the test with HSP90 (Table 3) of 60 nM.
